Key:
[1] = tested on: mouse HSCs; test: NK cell differentiation from HSCs under vitamin D3 treatment, FACS analysis of NK1.1-positive cells; assay type: cell-based; conditions: vitamin D3 treated at each stage HSC to pNK to mNK; culture with OP9 and IL-15; FACS (FIG. 15)
Method: FIG. 15 is a set of graphs showing the result of FACS analysis with NK cell group positive for NK1.1. Vitamin D3 was treated during the whole procedure of differentiation from HSCs of a wild type mouse into mNK via pNK, which was progressed by the cell culture in the presence of OP9 and IL-15, resulting in the confirmation of NK cell group positive for NK1.1.
HSCs isolated from bone marrow in the above Example 1 were inoculated into 6-well plate (Falcon, USA) using a complete RPMI medium supplemented with mouse SCF (30 ng/ ? , BioSource, Camarillo, Calif.), mouse Flt3L (50 ng/ ? , PeproTech, Rocky Hill, N.J.), mouse IL-7 (0.5 ng/ ? , PeproTech), indomethacin (2 g/ ? , Sigma), gentamycin (20 g/ ? ) and 10% fetal bovine serum, at the concentration of 2×10^6 cells/well. The cells were cultured in a 37° C., 5% CO2 incubator for 6 days. […] The purity of the pNK cells was determined by FACS, confirming over 92% purity.
To generate mature NK cells (referred as “mNK cells” hereinafter), collected HSCs were cultured with or without OP9 stromal cells (Science, 265: 1098-1101, 1994) in the presence of mouse IL-15 (20 ng/ ? , PeproTech, USA). […] The purity of the mature NK cells was determined by flow cytometry (FACS) using anti-CD122, NK1.1, DX-5 and NK cell receptor antibodies. […]

[2] = tested on: Yac-1; test: 51Cr release assay of NK cells differentiated in vitro under vitamin D3; assay type: cell-based, mouse; conditions: 10 nM vitamin D3 during differentiation, compared with vitamin D3 non-treating group (FIG. 16)
Method: FIG. 16 is a graph showing the cytotoxicity, investigated by ^51Cr release assay, of NK cells for a target cell ‘Yac-1’ developed under the treatment of low concentration of vitamin D3 (10 nM). E/T means the ratio of effective cells to target cells.
(§1) NK cells, differentiated in vitro or isolated from spleen, were treated with IL-2 (10 u/ml), followed by culture for 24 hours. After being washed, NK cells were plated, according to ratios of effector cells to target cells, into a 96 well plate (well round bottom plate, Falcon, USA) containing target cells (^51Cr-labeled Yac-1 cells, 10^4/well), followed by further culture for 4 hours. Upon completion of the culture, radioactivity of 100 ul of supernatant was measured by γ counter (FIG. 9).
To investigate the effect of vitamin D3, known to regulate VDUP1, on NK cell development, 1,25-dihydroxy vitamin D(3) was treated to each stage of differentiation from mouse HSCs into mNK cells via pNK. The cells were matured by the culture in the presence of OP9 and IL-15, then FACS analysis (FIG. 15) and ^51Cr release assay (FIG. 16) were performed.

[3] = tested on: mature NK cells; test: 51Cr release assay of mature spleen NK cells treated with IL-2 and vitamin D3; assay type: cell-based; conditions: mature NK cells from wild type mouse spleen, vitamin D3 together with IL-2 for 24 hours (FIG. 17)
Method: FIG. 17 is a graph showing the cytotoxicity of mature NK cells, separated from spleen of a wild type mouse, and then treated with IL-2 and/or vitamin D3 for 24 hours, detected by ^51Cr release assay.
as §1
Further, mature NK cells were isolated from spleen of a wild type mouse. The cells were treated with vitamin D3 together with IL-2 for 24 hours, followed by ^51Cr release assay (FIG. 17).

C=C1/C(=C\C=C2/CCC[C@]3(C)[C@@H]([C@H](C)CCCC(C)(C)O)CC[C@@H]23)C[C@@H](O)C[C@@H]1O [vitamin D3, 1,25-dihydroxy vitamin D(3)]
NK cell population (NK1.1 positive) [1]: increased by vitamin D3 in a dose dependent manner
NK mediated cytotoxicity for Yac-1 [2]: increased
NK mediated cytotoxicity [3]: increased
